# Assay results: patent US12157713B2, “Conjugated oligoelectrolytes as antimicrobial agents” (Nanyang Technological University, priority 2018, dated 2024)
# Values joined by “and” are separate entries in the source; they are usually repeats but may differ in a detail not shown here. Identical values can stand only once. Like-named read-outs stand apart in the source and are kept apart here.
# How the values were obtained:
# E. coli K12 [1] = experiment: MIC by broth microdilution against E. coli K12; assay type: cell-based; conditions: Escherichia coli, read-out: MIC against E. coli K12
# Protocol: The respective minimum inhibition concentration (MIC) of each COE molecule was determined using a broth microdilution method. Briefly, COEs were diluted via a 2-fold dilution series in 100 μL of either Muller Hinton Broth (MHB) for E. coli and S. aureus or Brain Heart Infusion Broth (BHI) for E. faecalis in a 96-well plate to achieve the desired final concentration. Subsequently, each well was inoculated with 100 μL of 1×10^6 colony forming units (CFU) mL^−1 of the respective microorganism in MHB for E. coli or BHI for E. faecalis to achieve an inoculum density of 5×10^5 CFU mL^−1. The plates were then incubated at 37° C. with shaking (200 rpm) for 18 hrs. […] The results were obtained in triplicate.
# The MIC values of COE-D4, COE-D6 and COE-D8 against the reference strain E. coli K12, pathogenic E. coli UT189, and the Gram positive pathogen Enterococcus faecalis OG1RF were determined using a broth microdilution method as described in the general method above. The MICs for E. coli K12 were determined to be 128, 16, and 4 μg mL^−1 for COE-D4, COE-D6, and COE-D8, respectively (FIG. 5a). […] This is not surprising as these two organisms differ in the capsular polysaccharides that they expressed, which are known to hinder the uptake of antimicrobials and mitigate their potency (M. A. Campos, et al., Infect. Immun. 2004, 72, 7107-7114). A K-type capsid comprising α2-8-linked sialic acid is excreted by UT189 and is known to be an important virulence factor for this organism (C. Whitfield, et al., Mol. Microbiol. 1999, 31, 1307-1319; G. G. Anderson, et al., Infect. Immun. 2010, 78, 963-975).
# [2] = tested on: Staphylococcus aureus MRSA ATCC 43300; experiment: Single-dose growth inhibition, Sa; assay type: cell-based
# Protocol: (§1) Inhibition of bacterial growth was determined by measuring the absorbance at 600 nm (OD600), using a Tecan M1000 Pro monochromator plate reader. Growth inhibition was calculated for each well, relative to the reference growths determined from a negative control (media only) and positive control (bacteria without inhibitors) incubated in the same plate. A single dose of 32 μg/mL of COE (final concentration) was used for each test.
# (§2) Percentage growth inhibition of an individual sample was calculated based on growth in a reference well determined from negative controls (media only) and positive controls (bacterial/fungal media without inhibitors). Negative inhibition values indicate that the growth rate (or OD600) is higher compared to the reference growth (bacteria/fungi only, set to 0% inhibition). The growth rates for all bacteria and fungi may vary at −/+10%, which were within the reported normal distribution of bacterial/fungal growth. Any significant variations (or outliers/hits) were identified by the modified Z-Score, and the active compounds were selected by a combination of inhibition values and Z-Score.
# (§3) A M(i) value of >|2.5| (absolute) would classify the sample as outliers or hits. Active samples were denoted as compounds with inhibition values equal to or above 80% and absolute Z-Score above |2.5| for either replicate (n=2 on different plates). Partial active samples were denoted as compounds with inhibition values from 50% to <80%, or absolute Z-Score below |2.5|.
# [3] = tested on: Klebsiella pneumoniae MDR ATCC 700603; experiment: Single-dose growth inhibition, Kp; assay type: cell-based
# Protocol: as §1, §2, §3
# [4] = tested on: Escherichia coli FDA control ATCC 25922; experiment: Single-dose growth inhibition, Ec; assay type: cell-based
# Protocol: as §1, §2, §3
# [5] = tested on: Pseudomonas aeruginosa ATCC 27853; experiment: Single-dose growth inhibition, Pa; assay type: cell-based
# Protocol: as §1, §2, §3
# [6] = tested on: Acinetobacter baumannii ATCC 19606; experiment: Single-dose growth inhibition, Ab; assay type: cell-based
# Protocol: as §1, §2, §3
# [7] = tested on: Candida albicans ATCC 90028; experiment: Single-dose growth inhibition, Ca; assay type: cell-based
# Protocol: (§4) Growth inhibition of C. albicans was determined by measuring the absorbance at 530 nm (OD530), while the growth inhibition of C. neoformans was determined by measuring the difference in absorbance between 600 and 570 nm (OD600-570), after the addition of resazurin (0.001 wt. % final concentration) and incubation at 35° C. for additional 2 hrs. The absorbance was measured using a Biotek Synergy HTX plate reader. The relative growth inhibition was calculated for each well, relative to that determined from a negative control (media only) and positive control (bacteria without inhibitors) on the same plate as references. A single dose of 32 μg/mL of COE (final concentration) was used for each test.
# as §2, §3
# [8] = tested on: Cryptococcus neoformans var. grubii H99; ATCC 208821; experiment: Single-dose growth inhibition, Cn; assay type: cell-based
# Protocol: as §4, §2, §3
# [9] = tested on: organism classes (Gram-negative, Gram-positive and fungi); experiment: Single-dose screening summary by organism class; assay type: cell-based; conditions: 32 μg/mL; 0 = no activity
# Protocol: as §2
# Z-Score analysis was carried out to investigate outliers or hits among the samples. The Z-Score was calculated based on the sample population using a modified Z-Score method which accounts for possible skewed sample population. The modified method uses median and MAD ([…]) instead of average and standard deviation, and a scaling factor (Iglewicz, B. & Hoaglin, D. C. Volume 16: How to Detect and Handle Outliers. The ASQC Basic Reference in Quality Control: Statistical Techniques, 1993). The equation to calculate the modified Z-Score value is as follow: […]
# as §3
# [10] = Solubility in PBS / aqueous solubility; assay type: physicochemical
# E. coli K12 [11] = experiment: Cellular uptake by E. coli K12 (absorption spectroscopy); assay type: cell-based, Escherichia coli; conditions: 10 μg/mL COE in PBS, OD=0.5, 2 hrs, room temperature
# Protocol: The relative membrane affinity of COE-D4, COE-D6 and COE-D8 was estimated from the quantity taken up by cells using absorption spectroscopy. After cultures of E. coli K12 were grown in MHB at 37° C., the cells were harvested by centrifugation (6000 rpm, 5 min) and washed twice with PBS solution (pH=7.2). The cells were then resuspended in PBS and with the density adjusted to OD=1.0. Thereafter, 5 mL of this cell suspension was mixed with an equal volume of 20 μg/mL of COE in PBS to achieve a final concentration of 10 μg/mL (in triplicates). After exposure to COEs for 2 hrs at room temperature and with shaking (200 rpm), the cells were removed by centrifugation and the supernatant was collected for absorbance scans to quantify the remaining COE in the supernatant. The uptake quantity was estimated by comparing the absorbance of the supernatant to the corresponding control COE solution (i.e. 10 μg/mL in PBS). The procedure for uptake measurements at the lower temperature is similar to the one described above, but with the exposure to COEs and centrifugation occurring at 4° C. instead of room temperature
# The effect of molecular structures of the COEs on relative membrane affinity, estimated from the amount taken up by E. coli K12, was measured by absorption spectroscopy (FIG. 8a-c). These experiments utilised cell suspensions (OD=0.5) incubated for 2 hrs with 10 μg mL^−1 of various COE. Cells were removed by centrifugation, and the amount of uncomplexed COE was determined from the optical absorption spectra. The longest molecule, COE-D8, achieved the highest uptake in bacteria (72%). In contrast, only 3% of COE-D4 was absorbed while the uptake for COE-D6 was 16% (Table 1a).
# Parallel experiments were carried out at 4° C. […] As a result of the reduced fluidity of cellular membrane at lower temperature, the uptake decreased to around 1% for COE-D4, 5% for COE-D6, and 34% for COE-D8.
# [12] = tested on: Pseudomonas aeruginosa (PAO1) biofilm; experiment: Anti-biofilm assay (MBEC plate, crystal violet); assay type: cell-based; conditions: P. aeruginosa PAO1 biofilm, 1 hour challenge in M9GC
# Protocol: Pseudomonas aeruginosa (PAO1) was grown in Luria-Bertani (LB) broth under shaking (200 rpm) at 37° C. for 16-18 hours. The overnight culture was diluted to 1:200 in M9GC media (M9 medium supplemented with glucose and casamino acids), and 200 μL of diluted culture was added to each well of MBEC plate (Innovotech, Canada). After incubating at 37° C. for 5 hours under shaking (200 rpm), biofilm was formed on the pegs of the MBEC plate. The pegs were then rinsed with 1× phosphate buffered saline (PBS) solution (200 μL per well), and exposed to a two-fold dilution series of COE in M9GC media (200 μL per well). The challenge plate was incubated at 37° C. for 1 hour under shaking (200 rpm), and then the pegs were washed using 200 μL PBS before being dipped into 180 μL 0.1 wt. % crystal violet aqueous solution. After incubating at room temperature for 15 minutes, the pegs were rinsed with PBS twice and transferred to a plate containing 200 μL absolute ethanol in each well for 15 minutes. The biofilm mass was quantified by measuring the absorption of crystal violet/ethanol solution at 550 nm. The minimum biofilm dispersal concentration (MBDC) values were determined as the lowest COE concentration at which biofilm attached on the peg was completely dispersed. The results were repeated in triplicate.
# [13] = K12, broth microdilution, MHB, 18 hrs
# [14] = 32 μg/mL single dose, n=2, read-out: Growth inhibition Sa
# [15] = ATCC700603, 32 μg/mL single dose, n=2, read-out: Growth inhibition Kp
# [16] = ATCC25922, 32 μg/mL single dose, n=2, read-out: Growth inhibition Ec
# [17] = ATCC27853, 32 μg/mL single dose, n=2, read-out: Growth inhibition Pa
# [18] = ATCC19606, 32 μg/mL single dose, n=2, read-out: Growth inhibition Ab
# [19] = ATCC90028, 32 μg/mL single dose, n=2, read-out: Growth inhibition Ca
# [20] = ATCC208821, 32 μg/mL single dose, n=2, read-out: Growth inhibition Cn
# [21] = aqueous buffer, in PBS, read-out: Solubility in PBS
Compound,Activity: number of organism classes the compound has been found active against [9],MIC (E. coli K12 [1]; [13]),"inhibition at 32 µg/mL [2, 14]","inhibition at 32 µg/mL [3, 15]","inhibition at 32 µg/mL [4, 16]","inhibition at 32 µg/mL [5, 17]","inhibition at 32 µg/mL [6, 18]","inhibition at 32 µg/mL [7, 19]","inhibition at 32 µg/mL [8, 20]",also measured
C[N+](C)(C)CC[N+](C)(C)CCCCOc1ccc(/C=C/c2ccc(OCCCC[N+](C)(C)CC[N+](C)(C)C)cc2)cc1 [COE-D42],1,–,–,–,–,–,–,–,–,"MIC (E. coli K12 [1]; K12, 18 h): 128 µg/mL; inhibition at 32 µg/mL ([2]; read-out: Growth inhibition Sa): > 80%; inhibition at 32 µg/mL ([3]; ATCC700603, read-out: Growth inhibition Kp): < 50%; inhibition at 32 µg/mL ([4]; ATCC25922, read-out: Growth inhibition Ec): < 50%; inhibition at 32 µg/mL ([5]; ATCC27853, read-out: Growth inhibition Pa): < 50%; inhibition at 32 µg/mL ([6]; ATCC19606, read-out: Growth inhibition Ab): < 50%; inhibition at 32 µg/mL ([7]; ATCC90028, read-out: Growth inhibition Ca): < 50%; inhibition at 32 µg/mL ([8]; ATCC208821, read-out: Growth inhibition Cn): < 50%"
C[N+](C)(C)CC[N+](C)(C)CCCCCCOc1ccc(/C=C/c2ccc(OCCCCCC[N+](C)(C)CC[N+](C)(C)C)cc2)cc1 [COE-D62],3,16 µg/mL,> 80%,> 80%,> 80%,< 50%,> 80%,< 50%,> 80%,–
C[N+](C)(C)CC[N+](C)(C)CCCCCCCCOc1ccc(/C=C/c2ccc(OCCCCCCCC[N+](C)(C)CC[N+](C)(C)C)cc2)cc1 [COE-D82],3,32 µg/mL,> 80%,50 to 80%,> 80%,> 80%,50 to 80%,> 80%,> 80%,–
C[N+](C)(C)CCCCOc1ccc(/C=C/c2ccc(/C=C/c3ccc(OCCCC[N+](C)(C)C)cc3)cc2)cc1 [COE-T4],2,32 µg/mL,> 80%,< 50%,< 50%,< 50%,50 to 80%,> 80%,> 80%,"solubility [10, 21]: 210 µg/mL; solubility ([10]; aqueous solution, read-out: aqueous solubility): 210 µg/mL; Uptake by E. coli K12 (E. coli K12 [11]): 75±5% and 80%"
C[N+](C)(C)CCCCCCOc1ccc(/C=C/c2ccc(/C=C/c3ccc(OCCCCCC[N+](C)(C)C)cc3)cc2)cc1 [COE-T6],2,> 16 µg/mL,> 80%,< 50%,< 50%,< 50%,< 50%,> 80%,> 80%,"solubility [10, 21]: 76 µg/mL; Uptake by E. coli K12 (E. coli K12 [11]): 89%"
CN(C)CC[N+](C)(C)CCCCOc1ccc(/C=C/c2ccc(/C=C/c3ccc(OCCCC[N+](C)(C)CCN(C)C)cc3)cc2)cc1 [COE-T42N],3,8 µg/mL,> 80%,< 50%,> 80%,< 50%,> 80%,> 80%,> 80%,–
CN(C)CC[N+](C)(C)CCCCCCOc1ccc(/C=C/c2ccc(/C=C/c3ccc(OCCCCCC[N+](C)(C)CCN(C)C)cc3)cc2)cc1 [COE-T62N],2,64 µg/mL,> 80%,< 50%,< 50%,< 50%,> 80%,> 80%,> 80%,–
CC(C)(O/N=C(\C(=O)N[C@@H]1C(=O)N2C(C(=O)[O-])=C(C[n+]3ccccc3)CS[C@H]12)c1csc(N)n1)C(=O)O [Ceftazidime],–,–,–,–,–,–,–,–,–,Minimum biofilm dispersal concentration [12]: >512 µg/mL
